Laboratory results: patent publication US10653670B2, “Use of indole compounds for fat reduction and skin and soft tissue tightening” (Alevere Medical Corporation, priority 2013, dated 2020)
Entries after “also recorded” stand apart in the source; their conditions may differ.

Tests used:
adipocytes [1] = test: LIVE/DEAD calcein/ethidium bromide assay, adipocyte kill rate; type: cell-based, human; settings: for Adipocyte, averaged ethidium numbers: kill rate (ethidium), all tissue types on the same plate; for adipocyte kill rate / aggressiveness: Example 2, FIGS. 5-8 and table
Protocol: (§1) The time and concentration dependent effects of drug substance on both cell viability and toxicity were evaluated using a two-color fluorescence assay that measures plasma membrane integrity and intracellular enzyme activity. Live cells are determined by the strong fluorescence of calcein AM upon enzymatic conversion. […] The ratio of ethidium to calcein fluorescence is an excellent measure of the relative amount of live and dead cells.
(§2) Initial screening was performed using a variety of cell viability and cytotoxicity assays, including Presto Blue® (Invitrogen, Grand Island, N.Y.), Alamar Blue® (Invitrogen, Grand Island, N.Y.), Cyto-Tox One® (Promega, Madison, Wis.), and Cell Titer Glo® (Promega, Madison, Wis.). […] An MTT terazolium assay was performed, as well as LDH and ATP based assays. […] The LIVE/DEAD® for mammalian cells assay was used. LIVE/DEAD® for mammalian cells assay is a calcein (live read)/ethidium bromide (dead) multiplex assay.
(§3) A sample of DMSO/PBS was a negative control. A sample of Aqualyx® was a positive control. In the table, 24M is phosphatidylcholine 25 mg/ml plus deoxycholate 12 mg/and 25N is C 50/DC24; these were positive controls. The numbers in the table refer to averaged ethidium numbers. The percentages represent the relative kill rate for each cell type when rated against the adipocyte kill rate for that compound. All tissue types were tested on the same plate against adipocytes in order to standardize results.
(§4) Over seventy compounds of the embodiments were tested for adipocytolysis, then for tissue preference. A consistent assay with multiplex information was a calcein/ethidium bromide assay that assesses cell viability and cell death simultaneously. Cell viability was checked using the Countess device. All plates were inoculated with 100 microliters of the appropriate cell types. A 6 well repeat was used to verify results. Cell types used included cultured human adult derived adipocytes, dermal fibroblasts, skeletal muscle cells, and endothelial cells (Cell Applications, Inc., San Diego, Calif.). Human peripheral nerve cells (Innoprot, Spain) were also used.
(§5) Compounds were formulated using a DMSO/PBS excipient. A 10 mg/ml concentration was used. One hundred microliters of test compound was inserted into 6 wells of 5 cell types, placed in adjacent rows. The plates were incubated for 4 hours. Indicator was added to each well, and plates were read at 45 minutes using a fluorescence spectrophotometer (Molecular Devices, Sunnyvale, Calif.).

dermal fibroblasts = type: cell-based; settings: for Dermis, averaged ethidium numbers: kill rate (ethidium), same plate as adipocytes; for Dermis, relative kill rate rated against the adipocyte kill rate: percentage in brackets; for toxicity to dermis / dermal fibroblasts: Example 2, FIGS. 6-8
Protocol: as §1, §2, §3, §4, §5

nerve cells = type: cell-based; settings: for Nerve, averaged ethidium numbers: kill rate (ethidium), same plate as adipocytes; for Nerve, relative kill rate rated against the adipocyte kill rate: percentage in brackets; for toxicity to nerve cells: Example 2, FIGS. 6-8
Protocol: as §1, §2, §3, §4, §5

skeletal muscle cells = test: LIVE/DEAD calcein/ethidium bromide assay, muscle cell kill rate; type: cell-based, human; settings: for Muscle, averaged ethidium numbers: kill rate (ethidium), same plate as adipocytes; for Muscle, relative kill rate rated against the adipocyte kill rate: percentage in brackets
Protocol: as §1, §2, §3, §4, §5

endothelial cells = test: LIVE/DEAD calcein/ethidium bromide assay, endothelial cell kill rate; type: cell-based, human; settings: for Endothelial, averaged ethidium numbers: kill rate (ethidium), same plate as adipocytes; for Endothelial, relative kill rate rated against the adipocyte kill rate: percentage in brackets
Protocol: as §1, §2, §3, §4, §5

[2] = test system: adipocytes over nerve cells, dermal cells, muscle cells, and endothelial cells; test: LIVE/DEAD assay, tissue preference (adipocytes versus other cell types); type: cell-based, human; settings: for tissue specificity / tissue preference: Example 2, FIGS. 5-8 and table, 2 and 5 hours in FIGS. 6-8; for tissue preference for adipocytes: Example 2
adipocytes [3] = test: Histology of injected immediate ex-vivo abdominoplasty tissue; type: cell-based, human; settings: at 1 hour
Protocol: As the indole group has not been previously used for intralesional fat reduction, a method of obtaining histologic specimens had to be modified.
The tissue model described herein, therefore, was immediate ex-vivo abdominoplasty tissue that had been permitted for use by the surgical patient. Segments of abdominal skin and subcutaneous fat were injected with identified test compounds, plus a negative saline control and three positive controls: 1% deoxycholate, the commercial preparation of Aqualyx®, and the Network Lipolysis PC/DC formula.
Because there was no host; inflammatory changes would not be expected. This study was only performed to assess the immediacy of adipocyte changes, and to determine the method of action of each compound.

| SMILES | Adipocyte, averaged ethidium numbers (adipocytes [1]) | Dermis, averaged ethidium numbers (dermal fibroblasts) | Nerve, averaged ethidium numbers (nerve cells) | Muscle, averaged ethidium numbers (skeletal muscle cells) | Endothelial, averaged ethidium numbers (endothelial cells) | tissue specificity / tissue preference [2] | adipocyte kill rate / aggressiveness (adipocytes [1]) | Dermis, relative kill rate rated against the adipocyte kill rate (dermal fibroblasts) | Nerve, relative kill rate rated against the adipocyte kill rate (nerve cells) | Muscle, relative kill rate rated against the adipocyte kill rate (skeletal muscle cells) | Endothelial, relative kill rate rated against the adipocyte kill rate (endothelial cells) | histology finding / mechanism of action (adipocytes [3]) | tissue preference for adipocytes [2] | toxicity to dermis / dermal fibroblasts (dermal fibroblasts) | toxicity to nerve cells (nerve cells) |
| --- | --- | --- | --- | --- | --- | --- | --- | --- | --- | --- | --- | --- | --- | --- | --- |
| O=Cc1c[nH]c2ccccc12 [Compound 1, 1H-indole-3-carbaldehyde] | 53 | 56 | 60 | 82 | 98 | no preference |  |  |  |  |  |  |  |  |  |
| O=Cc1cc2ccccc2[nH]1 [Compound 2, 1H-indole-2-carbaldehyde] | 360 | 101 | 124 | 93 | 116 | most strongly tissue preferential; also recorded: high specificity | aggressive; also recorded: most aggressive | 28% | 39% | 26% | 32% | more cytolysis than apoptosis |  |  |  |
| O=Cc1ccc2[nH]ccc2c1 [Compound 3, 1H-indole-5-carbaldehyde] | 42.5 | 26.5 | 26 | 25 | 25 | moderate preference |  | 62% | 61% | 59% | 59% |  |  |  |  |
| O=Cc1cccc2cc[nH]c12 [Compound 4, 1H-indole-7-carbaldehyde] | 127 | 79 | 66 | 99 | 86 | shows specificity for adipocyte killing | less aggressive | 62% | 52% | 78% | 63% |  | about 50% |  |  |
| O=Cc1cccc2[nH]ccc12 [Compound 5, 1H-indole-4-carbaldehyde] | 36 | 17 | 17 | 27 | 16 |  |  | 47% | 47% | 75% | 44% |  | about 50% | late dermal spike | more nerve preservation |
| O=Cc1c[nH]c2c3c(ccc12)CCC3 [Compound 7, 1,6,7,8-tetrahydrocyclopenta[g]indole-3-carbaldehyde] | 196 | 103 | 56 | 119 | 69 | not tissue preference |  | 53% | 30% | 61% | 35% |  |  |  |  |
| O=C(O)CCCc1c[nH]c2ccccc12 [Compound 10, 4-(1H-indol-3-yl) butanoic acid] | 45 | 10 | 12 | 13 | 16.5 |  | most aggressive | 22% | 27% | 29% | 37% |  |  |  |  |
| O=C(O)c1cccc2[nH]ccc12 [Compound 27, 1H-indole-4-carboxylic acid] |  |  |  |  |  | high specificity |  |  |  |  |  |  |  |  |  |
| O=C(O)c1ccc2[nH]ccc2c1 [Compound 28, 1H-indole-5-carboxylic acid] |  |  |  |  |  | high specificity | high kill rate |  |  |  |  |  |  |  |  |
| O=C(O)c1c[nH]c2ccccc12 [Compound 30, 1H-indole-3-carboxylic acid] |  |  |  |  |  |  |  |  |  |  |  |  | about 50% |  |  |
| O=C(O)c1cc2cc(Br)ccc2[nH]1 [Compound 40, 5-bromo-1H-indole-2-carboxylic acid] | 123 | 33 | 61 | 36 | 40 | most strongly tissue preferential; also recorded: tissue specificity at two time points; also recorded: high specificity | moderate | 27% | 50% | 29% | 33% |  |  |  |  |
| O=Cc1c[nH]c2cccc(OCc3ccccc3)c12 [Compound 43, 4-(benzyloxy)-1H-indole-3-carbaldehyde] | 340 | 74 | 58 | 73 | 92.5 | most strongly tissue preferential | aggressive; also recorded: adipolytic | 22% | 17% | 21% | 27% |  |  | low kill rate | low kill rate |
| O=Cc1c[nH]c2cc(OCc3ccccc3)ccc12 [Compound 44, 6-(benzyloxy)-1H-indole-3-carbaldehyde] | 218 | 134 | 103 | 172 | 129 | not as specific as the other compounds tested in this group |  | 61% | 47% | 79% | 59% |  | about 50% |  |  |
| O=C(O)[C@H]1Cc2c([nH]c3ccccc23)[C@@H](c2ccc(O)cc2O)N1 [Compound 78, (1R,3R)-1-(2,4-dihydroxyphenyl)-2,3,4,9-tetrahydro-1H-pyrido [3,4-b]indole-3-carboxylic acid] | 29.5 | 8.3 |  | 8.7 | 9.8 | high specificity |  | 28% |  | 29% | 33% |  |  |  |  |
